Converted amounts (≈) assume the structure as drawn. Read-outs that look alike come from different tables or passages of the source.
Tests used:
Aspergillus niger (An) = test: Minimum inhibitory concentration, malt yeast agar, Aspergillus niger; format: cell-based, Aspergillus niger ATCC 16404; conditions: 30° C, 72 hours (fungi)
Experimental: (§1) Malt yeast agar is prepared by adding 3 g yeast extract and 45 g malt agar per liter of deionized water. The specific agar is dispensed in 30 mL aliquots into 25×200 mm test tubes, capped and autoclaved for 15 minutes at 115° C.
(§2) The inoculation with the yeast and fungi is accomplished as follows. Cultures of yeast and fungi are incubated for seven days on malt yeast agar at 30° C. These cultures are used to prepare suspensions by the following procedure. A suspension of each organism is prepared by adding 10 mL of sterile saline and 10 microliters of octylphenoxy polyethoxy ethanol to the agar slant of yeast or fungi. The sterile saline/octylphenoxy polyethoxy ethanol solution is then agitated with a sterile swab to suspend the microorganism grown on the slant. Each resulting suspension is diluted into sterile saline (1 part suspension to 9 parts sterile saline). Aliquots of these dilutions are placed in individual wells of Steer's Replicator and petri plates inoculated as previously described. The petri plates are incubated at 30° C. and read after 48 hours for yeast and 72 hours for fungi.

Escherichia coli (Ec) = test: Minimum inhibitory concentration, nutrient agar, Escherichia coli; conditions: 48 h
Proteus vulgaris (Pv) = test: Minimum inhibitory concentration, nutrient agar, Proteus vulgaris; conditions: 48 h
[1] = tested on: Klebsiella pneumoniae (Kp); test: Minimum inhibitory concentration, nutrient agar, Klebsiella pneumoniae; conditions: 48 h
Trichoderma viride (Tv) = test: Minimum inhibitory concentration, malt yeast agar, Trichoderma viride; format: cell-based, Trichoderma viride ATCC 8678; conditions: malt yeast agar, 30° C, 72 hours (fungi); read-out: Minimum Inhibitory Concentration, Tv
Experimental: as §1, §2

[2] = tested on: Saccharomyces cerevisiae (Sc); test: Minimum inhibitory concentration, malt yeast agar, Saccharomyces cerevisiae; format: cell-based, Saccharomyces cerevisiae ATCC 4105; conditions: malt yeast agar, 30° C, 48 hours (yeast), read-out: Minimum Inhibitory Concentration, Sc
Experimental: as §1, §2

[3] = tested on: Enterobacter aerogenes (Ea); test: Minimum inhibitory concentration, nutrient agar, Enterobacter aerogenes; conditions: Klebsiella aerogenes, 48 h
[4] = tested on: Aureobasidium pullulan (Ap); test: Minimum inhibitory concentration, malt yeast agar, Aureobasidium pullulan; format: cell-based, Aureobasidium pullulan ATCC 16622; conditions: 30° C, 48 hours for yeast and 72 hours for fungi
Experimental: as §1, §2

Bacillus subtilis (Bs) = test: Minimum inhibitory concentration, nutrient agar, Bacillus subtilis; conditions: 48 h
[5] = tested on: Penicillium chrysogenum (PC); test: Minimum inhibitory concentration, malt yeast agar, Penicillium chrysogenum; format: cell-based, Penicillium chrysogenum ATCC 9480; conditions: malt yeast agar, 30° C, 72 hours (fungi); read-out: Minimum Inhibitory Concentration, Pc
Experimental: as §1, §2

marine organisms = test: Marine antifouling rating of coated test panels exposed under a marine surface; conditions: scale 10 (completely free of growth) to 0 (completely covered), 1.0 g compound in 9.0 g latex binder
Experimental: Test panels are prepared from clear, rigid polyvinyl chloride film that is 0.381×10^-3 m thick and has one textured surface. The test panels are 0.1524 m by 0.1524 m squares that have 0.00635 m holes punched at corners on 0.127 m centers. A 0.102 square template, with a 0.067 m diameter hole at the center, is attached to the center of the textured surface of the test panels.
A candidate marine antifoulant compound (1.0 g) is stirred into a resinous latex binder (9.0 g). A portion of the compound/binder mixture (1.5 g) is added to the center of the test panel and uniformly spread over the circular area inside the template.
Water is added dropwise as needed to properly spread the compound/binder mixture. The template prevents the compound/binder mixture from spreading beyond the uncovered area. The test panel is allowed to sit for between 10 to 30 minutes until the edge of the spread compound/binder mixture has dried. The template is then removed. The test panel is then allowed to dry for 8 to 12 hours at room temperature.
Two test panels are prepared for each candidate marine antifoulant compound. Two control test panels are also prepared by only treating with the resinous latex binder. One test panel of each candidate marine […] compound is attached over a white background to the topside of an exposure support apparatus. The second test panel is attached over a black background to the underside of the exposure support apparatus. The exposure support apparatus is placed horizontally 0.0254 m under a marine surface with the white background topside facing up. […]
After being removed from the exposure support apparatus, each test panel is inspected and rated for marine organism growth on both the treated and untreated areas of the test panel. The marine organisms present on the treated and untreated areas are noted. The presence of algae spores and bacterial slime are noted but not included in rating each test panel. The test panels are rated on a scale from 10 (representing completely free of marine organism growth) to 0 (representing completely covered with marine organism growth).

Candida albicans (Ca) = test: Minimum inhibitory concentration, malt yeast agar, Candida albicans; format: cell-based, Candida albicans ATCC 10231; conditions: malt yeast agar, 30° C, 48 hours (yeast); read-out: Minimum Inhibitory Concentration, Ca
Experimental: as §1, §2

[6] = tested on: Pseudomonas aeruginosa (Pa); test: Minimum inhibitory concentration, nutrient agar, Pseudomonas aeruginosa; format: cell-based, Pseudomonas aeruginosa ATCC 10145; conditions: 30° C, 48 hours
[7] = tested on: Salmonella choleraesuis (Sc); test: Minimum inhibitory concentration, nutrient agar, Salmonella choleraesuis; format: cell-based, Salmonella choleraesuis ATCC 10708; conditions: Salmonella enterica, 30° C, 48 hours
[8] = tested on: Staphylococcus aureus (Sa); test: Minimum inhibitory concentration, nutrient agar, Staphylococcus aureus; conditions: 48 h
Fusarium oxysporum (Of) = test: Minimum inhibitory concentration, malt yeast agar, Fusarium oxysporum; format: cell-based, Fusarium oxysporum ATCC 48112; conditions: 30° C, 72 hours (fungi), read-out: Minimum Inhibitory Concentration, Fo
Experimental: as §1, §2

[9] = tested on: Pseudomonas aeruginosa (PRD-10); test: Minimum inhibitory concentration, nutrient agar, Pseudomonas aeruginosa PRD-10; conditions: 48 h
[10] = pH 6.8, read-out: Minimum inhibitory Concentration, Ec
[11] = pH 8.2, read-out: Minimum inhibitory Concentration, Ec
[12] = pH 6.8, read-out: Minimum inhibitory Concentration, Pv
[13] = pH 8.2, read-out: Minimum inhibitory Concentration, Pv
[14] = pH 6.8, read-out: Minimum inhibitory Concentration, Kp
[15] = pH 8.2, read-out: Minimum inhibitory Concentration, Kp
[16] = pH 6.8, read-out: Minimum inhibitory Concentration, Ea
[17] = pH 8.2, read-out: Minimum inhibitory Concentration, Ea
[18] = pH 6.8, read-out: Minimum inhibitory Concentration, Bs
[19] = pH 8.2, read-out: Minimum inhibitory Concentration, Bs
[20] = pH 6.8, read-out: Minimum inhibitory Concentration, Sa
[21] = pH 8.2, read-out: Minimum inhibitory Concentration, Sa
[22] = pH 6.8, read-out: Minimum inhibitory Concentration, PRD
[23] = pH 8.2, read-out: Minimum inhibitory Concentration, PRD

SMILES	MIC (Aspergillus niger (An))	MIC (Escherichia coli (Ec); [10])	MIC (Escherichia coli (Ec); [11])	MIC (Proteus vulgaris (Pv); [12])	MIC (Proteus vulgaris (Pv); [13])	MIC [1, 14]	MIC [1, 15]	MIC (Trichoderma viride (Tv))	MIC [2]	MIC [3, 16]	MIC [3, 17]	MIC [4]	MIC (Bacillus subtilis (Bs); [18])	MIC (Bacillus subtilis (Bs); [19])	MIC [5]	Marine Antifouling Rating, Bottom Panel (marine organisms; 6 weeks)	Marine Antifouling Rating, Top Panel (marine organisms; 6 weeks)	Marine Antifouling Rating, Bottom Panel (marine organisms; 10 weeks)	Marine Antifouling Rating, Top Panel (marine organisms; 10 weeks)	Marine Antifouling Rating, Bottom Panel (marine organisms; 16 weeks)	other results
CCCn1c(=O)c2sc3nsnc3sc=2c1=O [IV, 6-n-Propyl-5H-Pyrrolo(3',4':5,6)(1,4)dithiino-(2,3-C)(1,2,5)thiadiazole-5,7(6H) -dione]	< 1 µg/mL	> 500 µg/mL	> 500 µg/mL	250 µg/mL (≈ 876 µM)	> 500 µg/mL	> 500 µg/mL	> 500 µg/mL	< 1 µg/mL	< 1 µg/mL	> 500 µg/mL	> 500 µg/mL	< 1 µg/mL	< 10 µg/mL	250 µg/mL (≈ 876 µM)	< 1 µg/mL	9	9	7	7	7	Marine Antifouling Rating, Top Panel (marine organisms; 16 weeks): 7; MIC (Candida albicans (Ca)): < 1 µg/mL; MIC ([6]; pH 6.8, nutrient agar): > 500 µg/mL; MIC ([6]; pH 8.2, nutrient agar): > 500 µg/mL; MIC ([7]; pH 6.8, nutrient agar): 500 µg/mL (≈ 1750 µM); MIC ([7]; pH 8.2, nutrient agar): > 500 µg/mL; MIC [8, 20]: 50 µg/mL (≈ 175 µM); MIC [8, 21]: 50 µg/mL (≈ 175 µM); MIC (Fusarium oxysporum (Of)): < 1 µg/mL; MIC [9, 22]: > 500 µg/mL; MIC [9, 23]: > 500 µg/mL
O=c1[nH]c(=O)c2sc3nsnc3sc1=2 [Example I, 5H-Pyrrolo(3',4':5,6)(1,4)dithiino-(2,3-C) (1,2,5)thiadiazole-5,7 (6H) -dione]	< 1 µg/mL	100 µg/mL (≈ 411 µM)	> 500 µg/mL	50 µg/mL (≈ 206 µM)	> 500 µg/mL	100 µg/mL (≈ 411 µM)	> 500 µg/mL	5 µg/mL (≈ 20.6 µM)	< 1 µg/mL	250 µg/mL (≈ 1030 µM)	> 500 µg/mL	< 1 µg/mL	< 10 µg/mL	> 500 µg/mL	< 1 µg/mL	10	10	9	7	9	Marine Antifouling Rating, Top Panel (marine organisms; 16 weeks): 8; MIC (Candida albicans (Ca)): 5 µg/mL (≈ 20.6 µM); MIC ([6]; pH 8.2, nutrient agar): > 500 µg/mL; MIC ([7]; pH 6.8, nutrient agar): 100 µg/mL (≈ 411 µM); MIC ([7]; pH 8.2, nutrient agar): > 500 µg/mL; MIC [8, 20]: 100 µg/mL (≈ 411 µM); MIC [8, 21]: > 500 µg/mL; MIC (Fusarium oxysporum (Of)): < 1 µg/mL; MIC [9, 22]: 500 µg/mL (≈ 2060 µM); MIC [9, 23]: > 500 µg/mL

Source: patent US5633219A, “5H-pyrrolo(3',4':5,6)(1,4)dithiin o(2,3-C)(1,2,5)thiadiazole-5,7(6H)-dione, compositions containing them and their use as antimicrobial and marine antifouling agents” (The Dow Chemical Company, priority 1996, dated 1997)
